Experimental data: PMC9511823 (Bioorganic & medicinal chemistry letters, 2020)
Where two headings read alike, the source gives them in different places. One block for each compound: values may come before it.

How the values were obtained:
[1] = target: MtbIMPDH (Mycobacterium tuberculosis, UniProt P9WKI7); test: MtbIMPDH inhibition; format: biochemical
[2] = target: T1, CpIMPDH (Cryptosporidium parvum, UniProt Q8T6T2); test: biochemical; format: biochemical; conditions: for CpIMPDH inhibition, result in words: relative to parent anilide
T1 sequence (Q8T6T2 1-400): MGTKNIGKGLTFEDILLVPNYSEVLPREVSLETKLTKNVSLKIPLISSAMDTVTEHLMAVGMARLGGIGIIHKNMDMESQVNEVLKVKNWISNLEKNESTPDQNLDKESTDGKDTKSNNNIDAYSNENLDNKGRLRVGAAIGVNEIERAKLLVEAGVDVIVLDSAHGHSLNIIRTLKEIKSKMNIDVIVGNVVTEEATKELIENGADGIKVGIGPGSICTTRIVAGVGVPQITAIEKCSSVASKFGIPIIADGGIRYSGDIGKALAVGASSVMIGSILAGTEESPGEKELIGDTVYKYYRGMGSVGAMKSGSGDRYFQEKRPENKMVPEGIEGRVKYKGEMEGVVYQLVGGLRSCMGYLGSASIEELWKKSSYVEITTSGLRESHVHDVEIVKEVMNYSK

[3] = target: HsIMPDH2 (Homo sapiens, UniProt P12268); test: HsIMPDH2 enzyme inhibition; format: biochemical
[4] = target: HsIMPDH1; conditions: read-out: HsIMPDH1 Ki; cited from earlier work
[5] = target: T1, CpIMPDH; conditions: read-out: CpIMPDH Ki; cited from earlier work
[6] = ratio of Ki,app of the two enantiomers

Chain of MtbIMPDH (P9WKI7 whole entry, looked up): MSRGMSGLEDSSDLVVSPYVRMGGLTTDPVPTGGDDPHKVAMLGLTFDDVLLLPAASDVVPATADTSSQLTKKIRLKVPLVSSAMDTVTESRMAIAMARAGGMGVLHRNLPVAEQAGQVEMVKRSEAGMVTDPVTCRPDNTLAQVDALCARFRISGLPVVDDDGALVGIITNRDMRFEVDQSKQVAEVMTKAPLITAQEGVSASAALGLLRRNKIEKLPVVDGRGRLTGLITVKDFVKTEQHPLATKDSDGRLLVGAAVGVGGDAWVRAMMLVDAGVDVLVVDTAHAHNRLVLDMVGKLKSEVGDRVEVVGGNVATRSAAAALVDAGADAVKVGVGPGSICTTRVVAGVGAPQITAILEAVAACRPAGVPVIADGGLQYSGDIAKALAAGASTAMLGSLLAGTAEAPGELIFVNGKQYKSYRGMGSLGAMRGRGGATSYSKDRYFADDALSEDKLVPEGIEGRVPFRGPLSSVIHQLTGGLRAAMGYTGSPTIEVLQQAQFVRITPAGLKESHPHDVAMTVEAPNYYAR

SMILES: COc1c(C)c2c(c(O)c1C/C=C(\C)CCC(=O)Nc1ccc(Cl)c(C(F)(F)F)c1)C(=O)OC2 [Compound 10]
Ki [1]: 60 nM

SMILES: COc1c(C)c2c(c(O)c1C/C=C(\C)CCC(=O)Nc1cccc(Cl)c1Cl)C(=O)OC2 [Compound 11]
CpIMPDH inhibition, result in words [2]: loss of CpIMPDH inhibitory activity

SMILES: COc1c(C)c2c(c(O)c1C/C=C(\C)CCC(=O)Nc1ccc(F)cc1)C(=O)OC2 [Compound 13]
Ki [2]: 180 nM

SMILES: COc1c(C)c2c(c(O)c1C/C=C(\C)CCC(=O)Nc1ccc(C(F)(F)F)cc1)C(=O)OC2 [Compound 14]
Ki [2]: 151 nM

SMILES: COc1c(C)c2c(c(O)c1C/C=C(\C)CCC(=O)N(C)c1ccc(Cl)cc1)C(=O)OC2 [Compound 16]
CpIMPDH inhibition, result in words [2]: loss of activity

SMILES: COc1c(C)c2c(c(O)c1CCOCC(=O)Nc1ccc(Cl)cc1)C(=O)OC2 [Compound 38]
Ki [2]: 405 nM | Ki [3]: 870 nM

SMILES: COc1c(C)c2c(c(O)c1CC(=O)Nc1ccc(Cl)cc1)C(=O)OC2 [Compound 44]
Ki [2]: 2800 nM | Ki [3]: 800 nM

SMILES: COc1c(C)c2c(c(O)c1C/C=C(\C)CCC(=O)O)C(=O)OC2 [MPA, Mycophenolic acid]
Ki [4]: 33 nM | Ki [5]: 9300 nM

Further lines, results first:

Ki [2]: 570 nM | Ki [3]: 1400 nM
SMILES: COc1c(C)c2c(c(O)c1C[C@H]1C[C@]1(C)CCC(=O)Nc1ccc(Cl)c(C(F)(F)F)c1)C(=O)OC2 [Compound 31a]

Ki [2]: 66 nM | eudysmic ratio of 31b and 31a for CpIMPDH inhibition [2, 6]: 8.6 | Ki [3]: 460 nM | eudysmic ratio of 31b and 31a for HsIMPDH inhibition [3, 6]: 3.1
SMILES: COc1c(C)c2c(c(O)c1C[C@@H]1C[C@@]1(C)CCC(=O)Nc1ccc(Cl)c(C(F)(F)F)c1)C(=O)OC2 [Compound 31b]

Ki [2]: 480 nM | Ki [3]: 550 nM
SMILES: COc1c(C)c2c(c(O)c1C/C=C/C(=O)Nc1ccc(Cl)cc1)C(=O)OC2 [Compound 42a]

Ki [2]: 450 nM | Ki [3]: 290 nM
SMILES: COc1c(C)c2c(c(O)c1CCCC(=O)Nc1ccc(Cl)cc1)C(=O)OC2 [Compound 42b]
